Data taken from patent publication US11760761B2, “Methods and compositions for targeting PD-L1” (Aligos Therapeutics, Inc., priority 2020, dated 2023).

Key:
PDL1 = PDL1 (Homo sapiens (Human), UniProt Q9NZQ7); assay: PDL1 Dimerization Assay; type: biochemical; conditions: 0.5 nM PDL1-6xHis, 0.5 nM PDL1-strep; read-out: PD-L1 dimerization EC50
Method: Serially diluted compounds were added to plate wells with the final concentration of DMASO at 1%. PDL1-6×His and PDL1-strep proteins were diluted in assay buffer (25 mM Hepes pH 7.4, 150 mM NaCl, 0.005% Tween 20, BSA 0.01%), added to the wells, and mixed well with the compounds. The plates were incubated for 2 h at room temperature. Anti-6×His Acceptor beads were added to the wells and the plates were further incubated for 1 h at room temperature. Strep-tactin Donor beads were added to the wells at reduced light. After additional 1 h incubation in the dark, the plates were read on a Envision reader. The final concentrations were 0.5 nM PDL1-6×His, 0.5 nM PDL1-strep, 20 ug/mL Anti-6×His Acceptor beads, 20 ug/mL Strep-tactin Donor beads. The EC50 values were determined by fitting the curves using a four-parameter equation in Graphpad Prism 8.

PD-1/PD-L1 interaction = PD-1/PD-L1 interaction (Homo sapiens (Human), UniProt Q9NZQ7); assay: PD-1/PD-L1 NFAT Reporter Assay (Jurkat T cells / PD-L1 expressing CHO cells co-culture); type: cell-based; conditions: for Emax: Jurkat, maximum NFAT-activation level relative to the positive control (10 nM Atezolizumab); for EC50: co-culture 6 hrs at 37° C., luciferase
Method: Blocking the PD-1/PD-L1 interaction will release the inhibitory signal and results in TCR signaling and NFAT-mediated luciferase activity.
CHO cells expressing surface-bound anti-CD3 antibodies and PD-L1 were first seeded overnight and treated with the compounds. Jurkat cells overexpressing PD-1 and a luciferase construct under NF-AT promoter were then immediately seeded on the monolayer of CHO cells. The co-culture was then incubated for 6 hrs at 37° C. Luciferase activity was assessed by adding the ONE-Glo reagent and measuring luminescence with a plate reader. EC50s values were determined from the fit of the dose-response curves Emax (%) corresponds to the maximum NFAT-activation level reached by a given compound relative to the positive control (10 nM Atezolizumab).

PDL1/PD1 = PDL1/PD1 (Homo sapiens (Human), UniProt Q9NZQ7); assay: PDL1/PD1 Binding Assay; conditions: PDL1-6xHis 0.3 nM, PD1-Fc-Avi-Biotin 2.5 nM, Acceptor/Donor beads; read-out: PD-1/PD-L1 PPI IC50
Method: Compounds to be tested were serially diluted in DMSO, and further diluted in assay buffer (25 mM Hepes pH 7.4, 150 mM NaCl, 0.005% Tween 20, BSA 0.01%). Diluted compounds were added to the wells with final concentration of DMSO at 1%. PDL1-6×His protein was added to the wells, mixed well with compound. The plates were incubated for 30 min at room temperature. PD1-Fc-Avi-Biotin protein was added to the wells. Final concentration of PDL1 and PD1 protein is 0.3 nM and 2.5 nM, respectively. After a binding time of 30 min at room temperature, Anti-6×His Acceptor beads (final concentration 20 ug/ml) were added to the wells, and the incubation continued for 1 h. Streptavidin Donor beads (final concentration 20 ug/mL) were added at reduced light. The plates were sealed with foil and incubated in the dark for additional 1 h or overnight before reading on an Envision reader. The IC50 values were determined by fitting the curves using a four-parameter equation in Graphpad Prism 8.

Sequence of PDL1 (Q9NZQ7 19-238): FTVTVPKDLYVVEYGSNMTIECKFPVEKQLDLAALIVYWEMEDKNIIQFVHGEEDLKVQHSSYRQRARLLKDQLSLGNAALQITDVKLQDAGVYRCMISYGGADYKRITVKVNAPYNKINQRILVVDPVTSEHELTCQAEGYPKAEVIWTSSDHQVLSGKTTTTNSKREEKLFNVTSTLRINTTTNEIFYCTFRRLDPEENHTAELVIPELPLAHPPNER
Sequence of PDL1 (Q9NZQ7 19-238): as above
Sequence of PD-1/PD-L1 interaction (Q9NZQ7 19-290): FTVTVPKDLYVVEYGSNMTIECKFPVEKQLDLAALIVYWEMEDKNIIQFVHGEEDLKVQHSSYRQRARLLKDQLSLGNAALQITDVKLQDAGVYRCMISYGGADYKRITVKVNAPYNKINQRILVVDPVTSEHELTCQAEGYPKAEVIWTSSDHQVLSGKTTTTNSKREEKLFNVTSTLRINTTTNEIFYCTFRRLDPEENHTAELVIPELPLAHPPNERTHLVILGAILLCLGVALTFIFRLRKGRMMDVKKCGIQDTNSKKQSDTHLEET
Sequence of PDL1/PD1 (Q9NZQ7 19-238): as the sequence (Q9NZQ7 19-238) above

EC50 (PDL1) | Emax (PD-1/PD-L1 interaction) | EC50 (PD-1/PD-L1 interaction) | IC50 (PDL1/PD1) | SMILES
1000 to 10000 nM | 145% | 100 to 1000 nM | ≤ 10 nM | COc1cc(-c2cccc(-c3cccc(-c4cnc(CN5CC6(CCC(=O)N6)C5)c(OC)n4)c3Cl)c2Cl)cc2c1[C@H](N1CC3(CCC(=O)N3)C1)CC2 (single isomer, unassigned) [Compound A-8]
1000 to 10000 nM | 105% | 100 to 1000 nM | ≤ 10 nM | COc1cc(-c2cccc(-c3cccc(-c4cnc(CN5CC(O)C5)c(OC)n4)c3Cl)c2Cl)cc2c1[C@@H](N1CC(O)C1)CC2 (single isomer, unassigned) [Compound A-9]
1000 to 10000 nM | 107% | 100 to 1000 nM |  | COc1cc(-c2cccc(-c3cccc(-c4cnc(CN5CC6(CCC(=O)N6)C5)c(OC)n4)c3Cl)c2Cl)cc2c1[C@H](NCC(=O)O)CC2 (single isomer, unassigned) [Compound B-2]
1000 to 10000 nM | 89% | 1000 to 10000 nM |  | COc1cc(-c2cccc(-c3cccc(-c4cnc(CN5CC6(CCC(=O)N6)C5)c(OC)n4)c3Cl)c2Cl)cc2c1[C@@H](NCC(=O)O)CC2 [Compound B-1]
